Measurements taken from patent US8859549B2, “Potassium channel modulators” (AbbVie, Inc., priority 2011, dated 2014).

Target: T1, KCNQ 2/3 channels (Homo sapiens, UniProt O43525+O43526)
T1 construct: expressed in transfected cells; host or cells: HEK293
Assay: KCNQ 2/3 channel activation, thallium flux FLIPR assay (BTC-AM dye)
Format: cell-based
Settings: for Emax: HEK293, maximum response relative to the response of 10 μM retigabine (set at 100%), HEK293 KCNQ2/KCNQ3 cells, read-out: % MAX; for EC50: HEK293 cells stably expressing human KCNQ2 and KCNQ3 subunits, thallium-induced fluorescence, 4 min compound incubation
Summary of the method: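 HEK293 cells stably expressing human KCNQ2/KCNQ3 were loaded with BTC-AM (3 μg/mL, 2 h, RT) and preincubated with compound for 4 min in pH 7.3 gluconate buffer containing 0.1 mM ouabain. Flux was triggered by 6 mM TlNO3/10 mM K2SO4 and read for 3 min; EC50 came from summed responses over basal, with maximum relative to 10 μM retigabine (100%).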

Emax	EC50	SMILES
80.9%	77.4 nM	O=C(Cc1cccc(Cl)c1)Nn1nc(S(=O)(=O)c2ccccc2)c2ccccc2c1=O [Example 209, 2-(3-chlorophenyl)-N-[1-oxo-4-(phenylsulfonyl)phthalazin-2(1H)-yl]acetamide]
61.4%	7620 nM	CCOC(=O)Cc1nn(NC(=O)Cc2ccc(Cl)cc2)c(=O)c2ccccc12 [Example 116, ethyl(3-{[(4-chlorophenyl)acetyl]amino}-4-oxo-3,4-dihydrophthalazin-1-yl)acetate]
5.96%	–	COC(=O)N[C@H](C(=O)NCc1nn(NC(=O)Cc2ccc(Cl)cc2)c(=O)c2ccccc12)C(C)C [Example 183, methyl[(2S)-1-{[(3-{[(4-chlorophenyl)acetyl]amino}-4-oxo-3,4-dihydrophthalazin-1-yl)methyl]amino}-3-methyl-1-oxobutan-2-yl]carbamate]
21.6%	–	O=C(Cc1ccc(Cl)cc1)Nn1nc(CNC(=O)OC2CCCCC2)c2ccccc2c1=O [Example 128, cyclohexyl[(3-{[(4-chlorophenyl)acetyl]amino}-4-oxo-3,4-dihydrophthalazin-1-yl)methyl]carbamate]
72.1%	330 nM	O=C(Cc1cc(F)cc(F)c1)Nn1nc(Cc2ccc(Cl)nc2)c2ccccc2c1=O [Example 31, N-{4-[(6-chloropyridin-3-yl)methyl]-1-oxophthalazin-2(1H)-yl}-2-(3,5-difluorophenyl)acetamide]
67.1%	1840 nM	O=C(Cc1ccc(Cl)cc1)Nn1nc(S(=O)(=O)Cc2ccccc2)c2ccccc2c1=O [Example 216, N-[4-(benzylsulfonyl)-1-oxophthalazin-2(1H)-yl]-2-(4-chlorophenyl)acetamide]
120%	134 nM	CC(C)(C)Sc1nn(NC(=O)Cc2ccc(Cl)cc2)c(=O)c2ccccc12 [Example 198, N-[4-(tert-butylsulfanyl)-1-oxophthalazin-2(1H)-yl]-2-(4-chlorophenyl)acetamide]
33.7%	1280 nM	O=C(Cc1ccc(Cl)cc1)Nn1nc(CNC(=O)OCC(F)(F)F)c2ccccc2c1=O [Example 129, 2,2,2-trifluoroethyl[(3-{[(4-chlorophenyl)acetyl]amino}-4-oxo-3,4-dihydrophthalazin-1-yl)methyl]carbamate]
40.8%	–	CC(C)(C)NC(=O)NCc1nn(NC(=O)Cc2ccc(Cl)cc2)c(=O)c2ccccc12 [Example 84, N-[4-{[(tert-butylcarbamoyl)amino]methyl}-1-oxophthalazin-2(1H)-yl]-2-(4-chlorophenyl)acetamide]
105%	1690 nM	O=C(Cc1ccc(OC(F)(F)F)cc1)Nn1nc(N2CCOCC2)c2ccccc2c1=O [Example 132, N-[4-(morpholin-4-yl)-1-oxophthalazin-2(1H)-yl]-2-[4-(trifluoromethoxy)phenyl]acetamide]
99.3%	69.3 nM	O=C(Cc1ccc(Br)cc1)Nn1nc(S(=O)(=O)c2ccccc2)c2ccccc2c1=O [Example 206, 2-(4-bromophenyl)-N-[1-oxo-4-(phenylsulfonyl)phthalazin-2(1H)-yl]acetamide]

The remaining lines, values behind:

SMILES	Emax	EC50
O=C(CC12CC3CC(CC1C3)C2)Nn1nc(S(=O)(=O)c2ccccc2)c2ccccc2c1=O [Example 218, 2-(hexahydro-2,5-methanopentalen-3a(1H)-yl)-N-[1-oxo-4-(phenylsulfonyl)phthalazin-2(1H)-yl]acetamide]	151%	58.3 nM
O=C(CC1CC2CCC1C2)Nn1nc(N2CCS(=O)(=O)CC2)c2ccccc2c1=O (racemic) [Example 190, (±)-2-[(exo)-bicyclo[2.2.1]hept-2-yl]-N-[4-(1,1-dioxidothiomorpholin-4-yl)-1-oxophthalazin-2(1H)-yl]acetamide]	74.3%	10600 nM
COc1cc(CC(=O)Nn2nc(N3CCOCC3)c3ccccc3c2=O)cc(OC)c1 [Example 173, 2-(3,5-dimethoxyphenyl)-N-[4-(morpholin-4-yl)-1-oxophthalazin-2(1H)-yl]acetamide]	33.9%	–
O=C(CC1CC2CCC1C2)Nn1nc(N2CCCCC2)c2ccccc2c1=O (racemic) [Example 25, (±)-2-[(exo)-bicyclo[2.2.1]hept-2-yl]-N-[1-oxo-4-(piperidin-1-yl)phthalazin-2(1H)-yl]acetamide]	144%	25.3 nM
O=C(Cc1ccc(Oc2ccccc2)cc1)Nn1nc(N2CCOCC2)c2ccccc2c1=O [Example 163, N-[4-(morpholin-4-yl)-1-oxophthalazin-2(1H)-yl]-2-(4-phenoxyphenyl)acetamide]	30.8%	–
O=C(Cc1cccc(O)c1)Nn1nc(N2CCOCC2)c2ccccc2c1=O [Example 143, 2-(3-hydroxyphenyl)-N-[4-(morpholin-4-yl)-1-oxophthalazin-2(1H)-yl]acetamide]	43.8%	–
O=C(CC(F)(F)F)Nn1nc(N2CCOCC2)c2ccccc2c1=O [Example 136, 3,3,3-trifluoro-N-[4-(morpholin-4-yl)-1-oxophthalazin-2(1H)-yl]propanamide]	49.1%	6230 nM
O=C(CC1CC2CCC1C2)Nn1nc(SCc2ccccc2)c2ccccc2c1=O (racemic) [Example 214, (±)-N-[4-(benzylsulfanyl)-1-oxophthalazin-2(1H)-yl]-2-[(exo)-bicyclo[2.2.1]hept-2-yl]acetamide]	197%	21.7 nM
O=C(CC1CCOC1)Nn1nc(-c2ccnc(Cl)c2)c2ccccc2c1=O (stereo not drawn) [Example 67, N-[4-(2-chloropyridin-4-yl)-1-oxophthalazin-2(1H)-yl]-2-(tetrahydrofuran-3-yl)acetamide]	6.78%	–
C[C@@H]1CN(c2nn(NC(=O)CC(C)(C)c3ccccc3)c(=O)c3ccccc23)C[C@H](C)O1 [Example 89, N-{4-[(cis)-2,6-dimethylmorpholin-4-yl]-1-oxophthalazin-2(1H)-yl}-3-methyl-3-phenylbutanamide]	183%	350 nM
O=C(Cc1cccc(F)c1)Nn1nc(N2CCOCC2)c2ccccc2c1=O [Example 149, 2-(3-fluorophenyl)-N-[4-(morpholin-4-yl)-1-oxophthalazin-2(1H)-yl]acetamide]	82.7%	5280 nM
O=C(Cc1cc(F)cc(F)c1)Nn1nc(S(=O)(=O)Cc2ccccc2)c2ccccc2c1=O [Example 215, N-[4-(benzylsulfonyl)-1-oxophthalazin-2(1H)-yl]-2-(3,5-difluorophenyl)acetamide]	45%	916 nM
Cc1cc(C)c(CC(=O)Nn2nc(N3CCOCC3)c3ccccc3c2=O)c(C)c1 [Example 168, N-[4-(morpholin-4-yl)-1-oxophthalazin-2(1H)-yl]-2-(2,4,6-trimethylphenyl)acetamide]	1.91%	–
COc1ccc(CC(=O)Nn2nc(N3CCOCC3)c3ccccc3c2=O)cc1OC [Example 172, 2-(3,4-dimethoxyphenyl)-N-[4-(morpholin-4-yl)-1-oxophthalazin-2(1H)-yl]acetamide]	51.7%	–
CC1CN(c2nn(NC(=O)CC(C)(C)c3ccccc3)c(=O)c3ccccc23)CC(C)O1 (stereo not drawn) [Example 61, N-[4-(2,6-dimethylmorpholin-4-yl)-1-oxophthalazin-2(1H)-yl]-3-methyl-3-phenylbutanamide]	123%	228 nM
O=C(Cc1cc(F)cc(F)c1)Nn1nc(Sc2ccccc2)c2ccccc2c1=O [Example 57, 2-(3,5-difluorophenyl)-N-[1-oxo-4-(phenylsulfanyl)phthalazin-2(1H)-yl]acetamide]	116%	38.1 nM
